Molecular target: T1, HMG-CoA reductase (Homo sapiens, UniProt P04035)
T1 construct: endogenous in cells; host or cells: HepG2 (Korea Cell Line Bank)
T1 sequence (P04035 1-888): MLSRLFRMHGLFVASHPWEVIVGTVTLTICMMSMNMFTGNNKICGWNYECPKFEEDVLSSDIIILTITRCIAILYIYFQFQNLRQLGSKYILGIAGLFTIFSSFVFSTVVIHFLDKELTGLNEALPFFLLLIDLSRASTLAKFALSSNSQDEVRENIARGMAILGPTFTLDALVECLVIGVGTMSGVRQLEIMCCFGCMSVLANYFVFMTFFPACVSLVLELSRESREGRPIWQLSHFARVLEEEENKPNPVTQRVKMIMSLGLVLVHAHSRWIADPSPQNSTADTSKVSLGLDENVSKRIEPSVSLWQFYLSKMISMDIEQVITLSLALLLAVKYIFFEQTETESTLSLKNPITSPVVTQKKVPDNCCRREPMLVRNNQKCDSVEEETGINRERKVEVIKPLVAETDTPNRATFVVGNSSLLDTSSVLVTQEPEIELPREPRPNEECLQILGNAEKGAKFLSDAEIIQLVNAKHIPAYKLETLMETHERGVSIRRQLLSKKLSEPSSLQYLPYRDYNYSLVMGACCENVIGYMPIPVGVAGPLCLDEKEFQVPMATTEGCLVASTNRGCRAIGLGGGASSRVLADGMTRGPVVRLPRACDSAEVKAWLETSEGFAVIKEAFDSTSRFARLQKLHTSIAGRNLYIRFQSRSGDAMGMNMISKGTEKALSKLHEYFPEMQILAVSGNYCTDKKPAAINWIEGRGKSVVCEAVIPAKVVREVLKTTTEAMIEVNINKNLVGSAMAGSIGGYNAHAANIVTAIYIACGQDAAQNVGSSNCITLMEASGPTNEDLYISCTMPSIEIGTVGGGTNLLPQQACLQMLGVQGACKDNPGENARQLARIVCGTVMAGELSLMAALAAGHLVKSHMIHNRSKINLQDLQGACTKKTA
Test: HMG-CoA reductase (HMGCR) degradation in HepG2 cells by western blotting
Format: cell-based
Conditions: treated for 18 hours, ratio of HMG-CoA reductase to GAPDH, read-out: DC50
Description: HepG2, a human liver cancer cell line, was purchased from the Korea Cell Line Bank (KCLB), Seoul, Korea. The passage in cell culture was maintained at P105 to P110.
The compounds of the present invention were completely dissolved in DMSO and used in the experiment. 2×10^5 cells were seeded for each well of a 12-well plate (SPL), and the cells were cultured in the culture medium in a total volume of 2 ml. Each of the compounds of the present invention and comparative compounds was diluted three folds from the highest concentration of 3 μM to the lowest concentration in 10 points and treated for 18 hours.
Each of the compounds the present invention and comparative compounds was diluted three folds from the highest concentration of 3 μM to the lowest concentration of […] in 10 points and was treated for 18 hours.
For SDS-PAGE and Western blotting, 1×RIPA lysis buffer (Rockland, Cat. No. MB-030-0050; Lot no. 39751), 100× Protease Inhibitor Cocktail (Quartett, Cat. No. PPI1015; Lot no. PCO50038424), Pierce™ BCA protein assay kit (ThermoScientific, Cat. No. 23225; Lot no. UC276876), albumin standard (ThermoScientific, Cat. No. 23209; Lot no. UB269561), 4-15% Mini-PROTEAN TGX stain-free gel (Bio-rad, Cat. No. 4568085; Lot no. L007041B), 10× Tris/Glycine/SDS buffer (Bio-rad, Cat. No. 1610732; Lot no. 10000044375B); 10×TBS (Bio-rad, Cat. No. 1706435; Lot no. 1000045140B), 10% Tween 20 (Cat. No. 1610781; Lot no. L004152B), Color protein standard broad range (NEB, Cat. No. P7719S; Lot no. 10040349), 4× Laemmli sample buffer (Bio-rad, Cat. No. 1610747; Lot no. L004133B), β-mercaptoethanol (Sigma-Aldrich, Cat. No. M3148; Lot no. 60-24-2), SuperBlock™ T20 (TBS) blocking buffer (ThermoScientific, Cat. No. 37536; Lot no. UC282578), 1M sodium azide solution (Sigma-Aldrich, Cat. No. 08591-1 mL-F; Lot no. BCBV4989), α-Rabbit pAb to Ms IgG (abcam, Cat. No. ab97046; Lot no. GR3252115-1), α-Goat pAb to Rb IgG (CST, Cat. No. 7074S; Lot no. 28), α-GAPDH (abcam, Cat. No. ab8245), α-HMGCR (GeneTex, Cat. No. GTX54088; Lot no. 821903509), ECL™ Prime western blotting reagents (GE Healthcare, Cat. No. RPN2232; Lot no. 17001655), Ponceau S solution (Sigma-Aldrich, Cat. No. P7170; Lot no. SLBV4112), Difco™ Skim milk (BD, Cat. No. 232100; Lot no. 8346795), and iBlot® 2 NC Regular stacks (Invitrogen, Cat. No. IB23001; Lot no. 2NR110619-02), were used.
For cell harvesting, the cells were first separated from the plate using trypsin and then washed with the medium and PBS. Specifically, the medium was suctioned off and washed with 1 mL of PBS, and PBS was suctioned off. The cells were treated with 0.5 mL TrypLE™ Express at 37° C. for 7 minutes to separate the cells, and then 0.5 mL of complete medium was added to collect 1 mL of cell culture solution. Then, 1 mL of the cell collection solution was centrifuged at 8,000 rpm for 120 seconds, and the supernatant was removed. After washing with 0.2 mL of PBS, the PBS was removed.
For cell lysis, a lysis buffer was added and cell debris was removed to obtain a cell lysate. Specifically, the cells were treated with 70 μL of 1×RIPA buffer containing a protease inhibitor and incubated for 30 minutes on ice. Then, the cells were centrifuged at 4° C. and 15,000 rpm for 10 minutes to obtain a cell lysate.
Then, a standard curve was obtained using the BCA assay, and the protein mass in the lysate was quantified by substituting the curve. The mixture was incubated at 37° C. for 30 minutes using 20 μL of standard or sample solution, and 200 μL of BCA or Bradford solution, and measured at 562 nm absorbance. Samples were prepared by adding 4× sample buffer so that the quantity of protein added to each well was 15 μg.
Sodium dodecyl sulfate polyacrylamide gel electrophoresis (SDS-PAGE) was performed by setting a running time of 100 minutes at 120 V on a 4-15% Mini-PROTEAN TGX stain-free gel (15 well). Transferring was performed on iBlot® 2 NC Mini stacks at P0 mode of the dry blotting system. […]

SMILES | DC50 [µM]
Cc1ncsc1-c1ccc(CNC(=O)[C@@H]2C[C@@H](O)CN2C(=O)[C@@H](NC(=O)COCCOCCNC(=O)O[C@H]2C[C@@H](C)C=C3C=C[C@H](C)[C@H](CC[C@@H]4C[C@@H](O)CC(=O)O4)[C@H]32)C(C)(C)C)cc1 [Compound 15, (1S,3R,7S,8S,8aR)-8-(2-((2R,4R)-4-hydroxy-6-oxotetrahydro-2H-pyran-2-yl)ethyl)-3,7-dimethyl-1,2,3,7,8,8a-hexahydronaphthalen-1-yl (2-(2-(2-(((S)-1-((2S,4R)-4-hydroxy-2-((4-(4-methylthiazol-5-yl)benzyl)carbamoyl)pyrrolidin-1-yl)-3,3-dimethyl-1-oxobutan-2-yl)amino)-2-oxoethoxy)ethoxy)ethyl)carbamate] | < 0.05
Cc1ncsc1-c1ccc(CNC(=O)[C@@H]2C[C@@H](O)CN2C(=O)[C@@H](NC(=O)COCCOCCNC(=O)O[C@H]2C[C@@H](C)C=C3C=C[C@H](C)[C@H](CC[C@@H]4C[C@@H](O[Si](C)(C)C(C)(C)C)CC(=O)O4)[C@H]32)C(C)(C)C)cc1 [Compound 19, (1S,3R,7S,8S,8aR)-8-(2-((2R,4R)-4-((tert-butyldimethylsilyl)oxy)-6-oxotetrahydro-2H-pyran-2-yl)ethyl)-3,7-dimethyl-1,2,3,7,8,8a-hexahydronaphthalen-1-yl (2-(2-(2-(((S)-1-((2S,4R)-4-hydroxy-2-((4-(4-methylthiazol-5-yl)benzyl)carbamoyl)pyrrolidin-1-yl)-3,3-dimethyl-1-oxobutan-2-yl)amino)-2-oxoethoxy)ethoxy)ethyl)carbamate] | < 0.05
Cc1ncsc1-c1ccc(CNC(=O)[C@@H]2C[C@@H](O)CN2C(=O)[C@@H](NC(=O)COCCOCCOCCNC(=O)O[C@H]2C[C@@H](C)C=C3C=C[C@H](C)[C@H](CC[C@@H]4C[C@@H](O[Si](C)(C)C(C)(C)C)CC(=O)O4)[C@H]32)C(C)(C)C)cc1 [Compound 20, (1S,3R,7S,8S,8aR)-8-(2-((2R,4R)-4-((tert-butyldimethylsilyl)oxy)-6-oxotetrahydro-2H-pyran-2-yl)ethyl)-3,7-dimethyl-1,2,3,7,8,8a-hexahydronaphthalen-1-yl ((S)-13-((2S,4R)-4-hydroxy-2-((4-(4-methylthiazol-5-yl)benzyl)carbamoyl)pyrrolidine-1-carbonyl)-14,14-dimethyl-11-oxo-3,6,9-trioxa-12-azapentadecyl)carbamate] | < 0.05
Cc1ncsc1-c1ccc(CNC(=O)[C@@H]2C[C@@H](O)CN2C(=O)[C@@H](NC(=O)COCCOCCOCCOCCNC(=O)O[C@H]2C[C@@H](C)C=C3C=C[C@H](C)[C@H](CC[C@@H]4C[C@@H](O[Si](C)(C)C(C)(C)C)CC(=O)O4)[C@H]32)C(C)(C)C)cc1 [Compound 21, (1S,3R,7S,8S,8aR)-8-(2-((2R,4R)-4-((tert-butyldimethylsilyl)oxy)-6-oxotetrahydro-2H-pyran-2-yl)ethyl)-3,7-dimethyl-1,2,3,7,8,8a-hexahydronaphthalen-1-yl ((S)-16-((2S,4R)-4-hydroxy-2-((4-(4-methylthiazol-5-yl)benzyl)carbamoyl)pyrrolidine-1-carbonyl)-17,17-dimethyl-14-oxo-3,6,9,12-tetraoxa-15-azaoctadecyl)carbamate] | < 0.05

Other lines, results leading:

DC50 [µM] | SMILES
< 0.05 | Cc1ncsc1-c1ccc(CNC(=O)[C@@H]2C[C@@H](O)CN2C(=O)[C@@H](NC(=O)COCCOCCOCCNC(=O)O[C@H]2C[C@@H](C)C=C3C=C[C@H](C)[C@H](CC[C@@H]4C[C@@H](O)CC(=O)O4)[C@H]32)C(C)(C)C)cc1 [Compound 16, (1S,3R,7S,8S,8aR)-8-(2-((2R,4R)-4-hydroxy-6-oxotetrahydro-2H-pyran-2-yl)ethyl)-3,7-dimethyl-1,2,3,7,8,8a-hexahydronaphthalen-1-yl ((S)-13-((2S,4R)-4-hydroxy-2-((4-(4-methylthiazol-5-yl)benzyl)carbamoyl)pyrrolidine-1-carbonyl)-14,14-dimethyl-11-oxo-3,6,9-trioxa-12-azapentadecyl)carbamate]
< 0.05 | Cc1ncsc1-c1ccc(CNC(=O)[C@@H]2C[C@@H](O)CN2C(=O)[C@@H](NC(=O)COCCOCCOCCOCCNC(=O)O[C@H]2C[C@@H](C)C=C3C=C[C@H](C)[C@H](CC[C@@H]4C[C@@H](O)CC(=O)O4)[C@H]32)C(C)(C)C)cc1 [Compound 17, (1S,3R,7S,8S,8aR)-8-(2-((2R,4R)-4-hydroxy-6-oxotetrahydro-2H-pyran-2-yl)ethyl)-3,7-dimethyl-1,2,3,7,8,8a-hexahydronaphthalen-1-yl ((S)-16-((2S,4R)-4-hydroxy-2-((4-(4-methylthiazol-5-yl)benzyl)carbamoyl)pyrrolidine-1-carbonyl)-17,17-dimethyl-14-oxo-3,6,9,12-tetraoxa-15-azaoctadecyl)carbamate]
< 0.05 | Cc1ncsc1-c1ccc(CNC(=O)[C@@H]2C[C@@H](O)CN2C(=O)[C@@H](NC(=O)COCCOCCOCCOCCOCCNC(=O)O[C@H]2C[C@@H](C)C=C3C=C[C@H](C)[C@H](CC[C@@H]4C[C@@H](O)CC(=O)O4)[C@H]32)C(C)(C)C)cc1 [Compound 18, (1S,3R,7S,8S,8aR)-8-(2-((2R,4R)-4-hydroxy-6-oxotetrahydro-2H-pyran-2-yl)ethyl)-3,7-dimethyl-1,2,3,7,8,8a-hexahydronaphthalen-1-yl ((S)-19-((2S,4R)-4-hydroxy-2-((4-(4-methylthiazol-5-yl)benzyl)carbamoyl)pyrrolidine-1-carbonyl)-20,20-dimethyl-17-oxo-3,6,9,12,15-pentaoxa-18-azahenicosyl)carbamate]

— patent US12479840B2, “HMG-CoA reductase degradation inducing compound” (Uppthera, priority 2020, dated 2025)
